The record followed here is patent EP0837859B1, “TETRAHYDROFURAN ANTIFUNGALS” (SCHERING CORPORATION, priority 1995, dated 1997).

The test system of the test is 11 strains of C. albicans and tropicalis. Put plainly: in vitro antifungal activity in EMEM (geometric mean MIC). In kind it is cell-based. Particulars: Candida albicans, read-out: geometric mean MICs.

As for `CC[C@@H]([C@H](C)O)n1ncn(-c2ccc(N3CCN(c4ccc(OC[C@H]5CC[C@](Cn6cncn6)(c6ccc(F)cc6F)O5)cc4)CC3)cc2)c1=O`, the MIC is ≥ 0.01 µg/mL.
